The target of one experiment is mu opioid receptor. To be noted: agonist morphine in GPI; antagonist 100 or 200 nM, 15 min; read-out: Ke; cited from earlier work.
In another experiment the target is kappa opioid receptor. As to conditions: agonist ethylketazocine in GPI; antagonist 100 or 200 nM, 15 min; read-out: Ke, EK; cited from earlier work.
The target of the next experiment is delta opioid receptor (Mus musculus, UniProt P32300). The experiment can be described thus: Antagonism of DADLE in the mouse vas deferens (MVD) preparation. The format is cell-based. To be noted: in words. The method, then: Furthermore, the MVD responds selectively to delta opioids.
Sequence of delta opioid receptor (P32300 whole entry): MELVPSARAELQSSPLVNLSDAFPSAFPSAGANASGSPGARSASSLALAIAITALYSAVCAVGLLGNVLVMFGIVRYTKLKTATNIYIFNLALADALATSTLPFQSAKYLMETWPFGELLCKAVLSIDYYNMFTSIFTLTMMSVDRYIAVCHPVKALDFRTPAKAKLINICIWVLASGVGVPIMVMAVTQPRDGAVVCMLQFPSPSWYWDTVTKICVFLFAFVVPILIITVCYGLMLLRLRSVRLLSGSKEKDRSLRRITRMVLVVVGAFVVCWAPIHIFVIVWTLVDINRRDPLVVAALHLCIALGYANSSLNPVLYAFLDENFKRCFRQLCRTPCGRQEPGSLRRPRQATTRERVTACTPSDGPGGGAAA
(§1) 2. Mouse Vas Deferens (MVD). […] The organ bath was maintained at 37° C.

Experiment [1] is classed as in vivo, rats. The source says:
When rats are fixed with chronically indwelling bipolar electrodes for electrical stimulation of the medial forebrain bundle, they will press levers for brief durations of stimulation. The higher the intensity of stimulation, the greater the pressing. […] These relationships plus extant theory provide the rationale for using pressing for brain stimulation as a means of assessing the reinforcing effects of drugs and assessing which drugs might affect another drug's reinforcing effects.
The particulars of the procedures used herein are briefly summarized. Further information is in Reid (cited above) and Reid et al. (Life Sciences, 52, PL67-71 (1993)). Rats were fixed with chronically indwelling bipolar electrodes. Using standard stereotaxic methods, which includes full anesthesia, the tips of the electrode were aimed to stimulate the medial forebrain bundle as it traverses the lateral hypothalamus. With the skull held in a stereotaxic instrument so that a plane between bregma and lamba was perpendicular to the shaft of the electrode, the following stereotaxic coordinates were used: 3.5 mm posterior to brema, 1.6 mm lateral to the midline, and 8.6 mm below the surface of the skull.
The apparatus of these tests was a Skinner box (24×30 ×38 cm) equipped with a lever (2.5×2 cm). Each box was fixed with electrical leads and a slip-ring apparatus that allowed the rat to be connected to the electrical stimulator for intracranial stimulation, but allowed the rat to move freely in the box.
Upon full recovery from surgery, rats were trained to press a lever in the Skinner box for electrial stimulation of the brain. The electrical stimulation was 60 Hz sine waves of 0.3 sec. The maximum intensity used was of 50 microAmps. Each lever press delivered one 0.3-sec of brain stimulation.
Just after rats learned to press the lever, the intensity of the brain stimulation was varied. Three intensities were chosen. The lowest intensity was one that was barely sufficient to sustain lever pressing. The highest intensity sustained high rates of pressing, but not the highest rates that a rat can achieve. The medium intensity was about midway between the lowest and the highest. Once a set of intensities were established for each rat, those intensities remained fixed throughout the balance of testing. […] Each rat was under a daily regimen. They were allowed to press for each of three intensities of brain stimulation for 10 minutes. […] They were allowed to press the lever under this daily regimen under level-pressing rates became stable. Then, drugs (or placebos) were administered.
The methods of Example 5 were nearly the same as those of Example 4. Rats were fixed, using standard procedures, with chronically indwelling electrodes for stimulation of the medial forebrain bundle. Subsequent to recovery from surgery, they were trained to press for brain stimulation. After each learned to press, they were put on a daily regimen. That daily regimen involved pressing for 5 min at a high intensity of brain stimulation, followed by 5-minute sessions with medium, low, low, medium and then high intensity. Intensities were set for each rat so that pressing rate for the low intensity was rather slow (the low intensity being near lower threshold for maintaining pressing), pressing for the high intensity was at a high rate, and pressing for the medium intensity was between the rate for low and high intensity. Pressing at each intensity was averaged for an index of rat's responsiveness at that intensity.

The test system of experiment [2] is mouse vas deferens (MVD) and guinea pig ileum (GPI). The experiment can be described thus: Agonist activity in MVD and GPI preparations. Type of experiment: cell-based. As to conditions: in words. The method, then: 1. Guinea Pig Ileal Longitudinal Muscle (GPI). Ilea from guinea pigs were taken approximately 10 cm from the ileocaecal junction, and a strip of longitudinal muscle with the myenteric plexus attached was prepared by method of Rang et al., Brit. J. Pharmacol., 22, 356 (1964), the disclosure of which is incorporated by reference herein. A 1 cm portion of this strip was then mounted between two platinum electrodes placed in a 10 ml organ bath and connected to an isometric transducer. Contractions were recorded on a polygraph. […] The organ bath was maintained at 36°-37° C. The longitudinal muscle strip was allowed to equilibrate with continuous stimulation for a minimum of 90 min.
as §1

The conditions of experiment [3]: cited from earlier work.

“Also recorded” adds a separate entry of the source. Bounds are passed on as bounds.

Turning to `Cc1ccc2[nH]c3c(c2c1)C[C@@]1(O)[C@H]2Cc4ccc(O)c5c4[C@@]1(CCN2CC1CC1)[C@H]3O5` [Compound 5], the Kb is more than 0.16 µM at mu opioid receptor and more than 0.25 µM on kappa opioid receptor.
`O=[N+]([O-])c1ccc2[nH]c3c(c2c1)C[C@@]1(O)[C@H]2Cc4ccc(O)c5c4[C@@]1(CCN2CC1CC1)[C@H]3O5` [Compound 6]: the Kb at mu opioid receptor is 0.092 µM; at kappa opioid receptor, not below 0.2 µM.
In the case of `Oc1ccc2c3c1O[C@H]1c4oc5ccccc5c4C[C@@]4(O)[C@@H](C2)N(CC2CC2)CC[C@]314` [Compound 8, 17-(cyclopropylmethyl)-6,7-dehydro-3,14β-dihydroxy-4,5α-epoxy-6,7-2',3'-benzo[b]furanomorphinan], the Kb on mu opioid receptor was 0.0308 µM; at kappa opioid receptor, 0.0508 µM. In addition, the “delta antagonist potency and selectivity” value at delta opioid receptor was “less potent and less selective than 1 as a delta antagonist, nevertheless retains substantial delta antagonist activity”.
Turning to `O=C1C(=Cc2ccccc2)C[C@@]2(O)[C@H]3Cc4ccc(O)c5c4[C@@]2(CCN3CC2CC2)[C@H]1O5` [BNTX, 7-benzylidenenaltrexone], the “pressing for brain stimulation, BNTX plus cocaine” value in experiment [1] (rat, in vivo) was “reduced cocaine's (5 mg/kg) facilitation of pressing for rewarding brain stimulation in a fashion similar to the reduction observed for NTI; also recorded: extraordinarily effective in blocking cocaine's salient effects”.
Consider `Oc1ccc2c3c1O[C@H]1c4[nH]c5c(F)cccc5c4C[C@@]4(O)[C@@H](C2)N(CC2CC2)CC[C@]314` [Compound 11], for which the Kb was 0.0053 µM at mu opioid receptor and more than 0.33 µM on kappa opioid receptor.
For the compound `COc1ccc2[nH]c3c(c2c1)C[C@@]1(O)[C@H]2Cc4ccc(O)c5c4[C@@]1(CCN2CC1CC1)[C@H]3O5` [Compound 4], the Kb at mu opioid receptor is 0.063 µM; at kappa opioid receptor, 0.0126 µM.
For the compound `Oc1ccc2c3c1O[C@H]1c4[nH]c5cccc(F)c5c4C[C@@]4(O)[C@@H](C2)N(CC2CC2)CC[C@]314` [Compound 10], the Kb is more than 0.125 µM on mu opioid receptor and more than 0.17 µM on kappa opioid receptor.
With `CN1CC[C@]23c4c5ccc(O)c4O[C@H]2c2[nH]c4ccccc4c2C[C@@]3(O)[C@H]1C5` [Compound 7], at delta opioid receptor, the “antagonism of the effect of the delta agonist DADLE” value was “inactive”. Further, the agonist activity entry in experiment [2] was “exhibited partial agonist activity”.
On to `CC(N)Cc1ccccc1` (centres unmarked) [Amphetamine, phenylisopropylamine, reference compound], for which the “pressing for brain stimulation, amphetamine alone” value in experiment [1] (rat, in vivo) is “produced an increment in pressing; also recorded: produced increased pressing compared to pressing under the influence of placebo”.
Regarding `Oc1ccc2c3c1O[C@H]1c4[nH]c5ccc(F)cc5c4C[C@@]4(O)[C@@H](C2)N(CC2CC2)CC[C@]314` [Compound 3], the Kb is 0.0617 µM at mu opioid receptor and 0.0462 µM at kappa opioid receptor.
For `CNC(C)Cc1ccc2c(c1)OCO2` (centres unmarked) [MDMA, N-monomethyl-3,4-methylenedioxyphenylisopropylamine, reference compound], the “mean presses at High intensity, MDMA plus Placebo” value in experiment [1] (High intensity of intracranial stimulation, six rats) stood at 922 presses per ten minutes. Moreover, the “mean presses at Low intensity, MDMA plus Placebo” value in experiment [1] (Low intensity of intracranial stimulation, six rats) was 288 presses per ten minutes. Also, the “mean presses at Medium intensity, MDMA plus Placebo” value in experiment [1] (Medium intensity of intracranial stimulation, six rats) worked out at 563 presses per ten minutes. The “pressing for brain stimulation, MDMA alone” value in experiment [1] (in words) was “increased pressing”. Moreover, the “average increase in pressing, MDMA” value in experiment [1] (low intensity, factor) was “four times”. Besides, the conditioned place preference result in experiment [3] (drug alone, literature) is listed as “produces a conditioned place preference among rats”.
Turning to `COc1cccc2c3c([nH]c12)[C@@H]1Oc2c(O)ccc4c2[C@@]12CCN(CC1CC1)[C@H](C4)[C@]2(O)C3` [Compound 14], at mu opioid receptor, the Kb is 0.035 µM.
As for `O=C1CC[C@@]2(O)[C@H]3Cc4ccc(O)c5c4[C@@]2(CCN3CC2CC2)[C@H]1O5` [naltrexone], the conditioned place aversion result in experiment [3] (given alone, literature) is on record as “condition place aversions”. In addition, in experiment [3] (rat, in vivo), the “effect on MDMA's conditioned place preference” value was “attenuated but not blocked” and the “effect on cocaine's conditioned place preference” value is “attenuate cocaine's reinforcing properties”.
On to `Cn1c2c(c3ccccc31)C[C@@]1(O)[C@H]3Cc4ccc(O)c5c4[C@@]1(CCN3CC1CC1)[C@H]2O5` [Compound 2], for which the Kb on mu opioid receptor is 0.0125 µM; on kappa opioid receptor it was 0.0222 µM.
On to `Oc1ccc2[nH]c3c(c2c1)C[C@@]1(O)[C@H]2Cc4ccc(O)c5c4[C@@]1(CCN2CC1CC1)[C@H]3O5` [Compound 9], for which the Kb at mu opioid receptor is 0.0272 µM; at kappa opioid receptor, 0.0685 µM.
As to `Cc1cccc2c3c([nH]c12)[C@@H]1Oc2c(O)ccc4c2[C@@]12CCN(CC1CC1)[C@H](C4)[C@]2(O)C3` [Compound 13], the Kb at mu opioid receptor is 0.0191 µM; on kappa opioid receptor, more than 0.33 µM.
As for `Oc1ccc2c3c1O[C@H]1c4nc5ccccc5nc4C[C@@]4(O)[C@@H](C2)N(CC2CC2)CC[C@]314` [Compound 16], the Kb at mu opioid receptor was 0.0061 µM; at kappa opioid receptor it was 0.0134 µM. On delta opioid receptor, the “delta antagonist potency and selectivity” value is listed as “A similar relationship was observed”.
Consider `Oc1ccc2c3c1O[C@H]1c4nc5ccccc5cc4C[C@@]4(O)[C@@H](C2)N(CC2CC2)CC[C@]314` [Compound 17], for which the Kb at mu opioid receptor is 0.0113 µM; on kappa opioid receptor, 0.0163 µM. Further, the “delta antagonist potency and selectivity” value on delta opioid receptor was “A similar relationship was observed”.

The values are drawn from US5411965A, “Use of delta opioid receptor antagonists to treat cocaine abuse” (Arizona Board of Regents, priority 1993, dated 1995).
